SMILES strings stand for the structures. A value given as a limit tells only on which side of the number the result lay.

The source of these data is patent publication US11492341B2, “ACLY inhibitors and uses thereof” (Nimbus Artemis, Inc., priority 2018, dated 2022).

Chain of ACL (P53396 whole entry, species assumed): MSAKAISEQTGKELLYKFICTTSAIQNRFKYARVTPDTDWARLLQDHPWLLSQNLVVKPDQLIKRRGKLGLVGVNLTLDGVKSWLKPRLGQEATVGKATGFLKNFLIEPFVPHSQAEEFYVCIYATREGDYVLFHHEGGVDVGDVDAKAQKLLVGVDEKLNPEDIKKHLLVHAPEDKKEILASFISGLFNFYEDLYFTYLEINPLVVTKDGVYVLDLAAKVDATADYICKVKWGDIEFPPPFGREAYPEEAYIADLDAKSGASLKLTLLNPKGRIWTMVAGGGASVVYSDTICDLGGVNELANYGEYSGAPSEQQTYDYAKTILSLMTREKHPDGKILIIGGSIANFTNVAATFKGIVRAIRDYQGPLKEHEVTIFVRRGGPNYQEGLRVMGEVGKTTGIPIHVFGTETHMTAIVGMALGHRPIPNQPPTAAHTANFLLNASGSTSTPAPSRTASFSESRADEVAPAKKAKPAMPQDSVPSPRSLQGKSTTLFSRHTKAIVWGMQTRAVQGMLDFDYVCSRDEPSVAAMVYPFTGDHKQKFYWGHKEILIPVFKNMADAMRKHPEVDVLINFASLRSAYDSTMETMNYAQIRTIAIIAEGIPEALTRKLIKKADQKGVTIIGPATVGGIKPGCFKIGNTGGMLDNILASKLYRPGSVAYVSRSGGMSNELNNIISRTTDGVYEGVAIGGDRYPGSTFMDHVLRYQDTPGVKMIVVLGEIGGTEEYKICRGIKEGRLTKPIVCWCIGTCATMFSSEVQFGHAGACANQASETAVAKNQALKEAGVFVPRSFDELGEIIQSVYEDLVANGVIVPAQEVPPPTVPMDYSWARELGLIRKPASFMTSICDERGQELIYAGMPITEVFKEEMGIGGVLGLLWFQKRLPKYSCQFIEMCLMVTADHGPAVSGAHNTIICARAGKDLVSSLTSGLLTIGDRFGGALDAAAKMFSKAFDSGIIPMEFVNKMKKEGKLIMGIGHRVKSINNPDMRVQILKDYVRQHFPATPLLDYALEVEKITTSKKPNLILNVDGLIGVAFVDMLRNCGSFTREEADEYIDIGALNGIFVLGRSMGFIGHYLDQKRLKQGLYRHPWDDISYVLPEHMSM

In the test the target is ACL (Homo sapiens (Human), UniProt P53396). In words: ADP-Glo Assay. The test is classed as biochemical. The settings on record: 3 nM ACL, 15 μM ATP, 3 μM CoA, 300 μM Citrate. The method, then:
Example 28. ADP-Glo Assay
Compounds of the present invention were evaluated in an ADP-GLO assay as follows: a) Dilute cpd 1:3 in succession in DMSO by hand for each cpds for 12 pts b) Add 0.1 μL diluted cpd solution to assay plate, each dose with 2 replicates c) Centrifuge 1000 RPM for 1 min d) Add 5 μL ACL working solution to 384-well assay plate, centrifuge 1000 RPM for 1 min e) Incubate at 25° C. for 15 min f) Add 5 μL substrate working solution to initiate reaction g) Final ACL reaction concentrations: 3 nM ACL, 15 μM ATP, 3 μM CoA, 300 μM Citrate, 0.01% Brij35, 4 mM DTT, 1% DMSO; h) Reference final conc: 30 uM starting Conc, 3× dilution, 11+0 points. Test cpd conc: 30/100 uM starting Conc, 3× dilution, 11+0 points. i) Incubate at 25° C. for 60 min j) Add 10 μL ADP Glo reagent, centrifuge 1000 RPM for 1 min k) Incubate at 25° C. for 40 min l) Add 20 μL kinase detection reagent, centrifuge 1000 RPM for 1 min m) Incubate at 25° C. for 40 min n) Read on Envision for US LUM as RLU
For `COC(=O)c1cc(Cl)c(O)c(S(=O)(=O)N2CCc3ccc(-c4ccccc4)cc32)c1` [I-2], the IC50 was in the range of 500 to 20000 nM.

As to `O=S(=O)(c1cc(Br)cc(Cl)c1O)N1CCc2ccc(-c3ccccc3)cc21` [I-3, 4-bromo-2-chloro-6-((6-phenylindolin-1-yl)sulfonyl)phenol], the IC50 was in the range of 500 to 20000 nM.

Turning to `O=S(=O)(c1cc(Br)cc(Cl)c1O)n1ccc2ccc(-c3ccccc3)cc21` [I-4, 4-bromo-2-chloro-6-((6-phenyl-1H-indol-1-yl)sulfonyl)phenol], the IC50 fell in the range of 500 to 20000 nM.

Take `O=C(O)c1cc(Cl)c(O)c(S(=O)(=O)N2CCc3ccc(-c4ccccc4)cc32)c1` [I-5]: the IC50 lay within 500 to 20000 nM.

In turn, `O=S(=O)(c1cc(Cl)cc(Cl)c1O)N1CC2(CCOCC2)c2ccccc21` [I-6] showed an IC50 of 500 to 20000 nM.

With `O=S(=O)(c1cc(Cl)cc(Cl)c1O)N1Cc2cnn(-c3ccccc3)c2C1` [I-7], the IC50 was in the range of 500 to 20000 nM.

The compound `O=S(=O)(c1cc(Cl)cc(Cl)c1O)N1CCOC(COc2ccccc2)C1` (stereo not shown) [I-8] registered an IC50 of 500 to 20000 nM.

In turn, `O=S(=O)(c1cc(Cl)cc(Cl)c1O)N1CC(O)(c2ccc(Cl)cc2)C1` [I-9] returned an IC50 of 500 to 20000 nM.

In the case of `O=S(=O)(c1cc(Cl)cc(Cl)c1O)N1CCC(Oc2ccccc2)CC1` [I-10], the IC50 is 500 to 20000 nM.

`COc1ccc(C2CCN(S(=O)(=O)c3cc(Cl)cc(Cl)c3O)C2)cc1` (stereo not shown) [I-11] had an IC50 of 500 to 20000 nM.

With `O=S(=O)(c1cc(Cl)cc(Cl)c1O)N1CCC1c1ccccc1F` (stereo not shown) [I-12], the IC50 lay within 500 to 20000 nM.

`CC(=O)Nc1ccc2c(c1)CN(S(=O)(=O)c1cc(Cl)cc(Cl)c1O)CC2` [I-13] gave an IC50 of 500 to 20000 nM.

The compound `C[C@@H]1CN(S(=O)(=O)c2cc(Cl)cc(Cl)c2O)C[C@H](C)O1` [I-14] returned an IC50 of 500 to 20000 nM.

In turn, `O=S(=O)(c1cc(Cl)cc(Cl)c1O)N1CC(c2nc3ccccc3s2)C1` [I-15] had an IC50 of 500 to 20000 nM.

`COc1ccc(N2CCN(S(=O)(=O)c3cc(Cl)cc(Cl)c3O)CC2)cc1` [I-16] showed a concentration for half-maximal inhibition (IC50) of 500 to 20000 nM.

On to `COc1ccc2c(c1)CCN2S(=O)(=O)c1cc(Cl)cc(Cl)c1O` [I-17], for which the IC50 was 500 to 20000 nM.

`O=S(=O)(c1cc(Cl)cc(Cl)c1O)N1CCC(Cc2ccccc2)C1` (stereo not shown) [I-18] yielded an IC50 of 500 to 20000 nM.

The compound `O=S(=O)(c1cc(Cl)cc(Cl)c1O)N1CC2(CCOCC2)C1c1ccccc1` (stereo not shown) [I-19] returned an IC50 of 500 to 20000 nM.

`O=S(=O)(c1cc(Cl)cc(Cl)c1O)N1CCCCC1c1ccccc1` (stereo not shown) [I-22] displayed a 50% inhibitory concentration (IC50) of 500 to 20000 nM.

Take `O=S(=O)(c1cc(Br)cc(Cl)c1O)n1c(-c2ccccc2)cc2ccccc21` [I-23, 4-bromo-2-chloro-6-((2-phenyl-1H-indol-1-yl)sulfonyl)phenol]: the concentration for half-maximal inhibition (IC50) lay within 500 to 20000 nM.

In turn, `O=S(=O)(c1cc(Br)cc(Cl)c1O)n1c(-c2cncnc2)cc2cc(Cl)ccc21` [I-24, 4-bromo-2-chloro-6-((5-chloro-2-(pyrimidin-5-yl)-1H-indol-1-yl)sulfonyl)phenol] gave an IC50 of less than 500 nM.

As for `O=C(O)c1ccccc1-c1cc2cc(Cl)ccc2n1S(=O)(=O)c1cc(Br)cc(Cl)c1O` [I-27, 2-(1-((5-bromo-3-chloro-2-hydroxyphenyl)sulfonyl)-5-chloro-1H-indol-2-yl)benzoic acid], the IC50 lay in the range of 500 to 20000 nM.

Compound `O=S(=O)(c1cc(Br)cc(Cl)c1O)n1c(-c2cncnc2)cc2ccccc21` [I-29, 4-bromo-2-chloro-6-((2-(pyrimidin-5-yl)-1H-indol-1-yl)sulfonyl)phenol] had an IC50 of 500 to 20000 nM.

`COc1ccc2c(c1)cc(-c1ccccc1)n2S(=O)(=O)c1cc(Br)cc(Cl)c1O` [I-31, 4-bromo-2-chloro-6-((5-methoxy-2-phenyl-1H-indol-1-yl)sulfonyl)phenol]: the IC50 was 500 to 20000 nM.

The compound `O=S(=O)(c1cc(Cl)cc(Cl)c1O)n1c(-c2ccc(OC(F)(F)F)cc2)cc2cc(Cl)ccc21` [I-32, 2,4-dichloro-6-((5-chloro-2-(4-(trifluoromethoxy)phenyl)-1H-indol-1-yl)sulfonyl)phenol] registered an IC50 of 500 to 20000 nM.

The compound `O=S(=O)(c1cc(Br)cc(Cl)c1O)n1c(-c2cccnc2)cc2cc(Cl)ccc21` [I-34] yielded an IC50 of less than 500 nM.

The compound `Cc1ccccc1-c1cc2cc(Cl)ccc2n1S(=O)(=O)c1cc(Br)cc(Cl)c1O` [I-35] came in with a 50% inhibitory concentration (IC50) of 500 to 20000 nM.

In the case of `Cc1c(C)n(S(=O)(=O)c2cc(Br)cc(Cl)c2O)c2ccc(Cl)cc12` [I-36], the IC50 lay in the range of 500 to 20000 nM.

The compound `CN(C)C(=O)c1cccc(-c2cc3cc(Cl)ccc3n2S(=O)(=O)c2cc(Br)cc(Cl)c2O)c1` [I-37] returned an IC50 of 500 to 20000 nM.

For the compound `CN(C)C(=O)c1ccccc1-c1cc2cc(Cl)ccc2n1S(=O)(=O)c1cc(Br)cc(Cl)c1O` [I-38], the IC50 lay in the range of 500 to 20000 nM.

Compound `CC(C)(O)c1cc2cc(Cl)ccc2n1S(=O)(=O)c1cc(Br)cc(Cl)c1O` [I-39] registered an IC50 of 500 to 20000 nM.

Compound `O=S(=O)(c1cc(Br)cc(Cl)c1O)n1c(C2CC2)cc2cc(Cl)ccc21` [I-41] registered an IC50 of 500 to 20000 nM.

As to `Cc1ccc2c(c1)cc(-c1ccccc1)n2S(=O)(=O)c1cc(Br)cc(Cl)c1O` [I-43], the IC50 was 500 to 20000 nM.

`O=C(O)c1cccc(-c2cc3cc(Cl)ccc3n2S(=O)(=O)c2cc(Br)cc(Cl)c2O)c1` [I-44] registered an IC50 of less than 500 nM.

With `O=C(O)c1ccc(-c2cc3cc(Cl)ccc3n2S(=O)(=O)c2cc(Br)cc(Cl)c2O)cc1` [I-45, 4-(1-((5-bromo-3-chloro-2-hydroxyphenyl)sulfonyl)-5-chloro-1H-indol-2-yl)benzoic acid], the IC50 is 500 to 20000 nM.

The compound `Cc1c(-c2ccccc2)c2cc(Cl)ccc2n1S(=O)(=O)c1cc(Br)cc(Cl)c1O` [I-46] returned an IC50 of 500 to 20000 nM.

`O=S(=O)(c1cc(Br)cc(Cl)c1O)n1c(-c2ccc(OC(F)(F)F)cc2)cc2ccncc21` [I-49, 4-bromo-2-chloro-6-((2-(4-(trifluoromethoxy)phenyl)-1H-pyrrolo[2,3-c]pyridin-1-yl)sulfonyl)phenol]: the IC50 lay within 500 to 20000 nM.

As for `CN(C)C(=O)c1ccc(-c2cc3cc(Cl)ccc3n2S(=O)(=O)c2cc(Br)cc(Cl)c2O)cc1` [I-50, 4-(1-((5-bromo-3-chloro-2-hydroxyphenyl)sulfonyl)-5-chloro-1H-indol-2-yl)-N,N-dimethylbenzamide], the IC50 was 500 to 20000 nM.

In the case of `O=S(=O)(c1cc(F)cc(F)c1O)n1c(-c2ccc(OC(F)(F)F)cc2)cc2cc(Cl)ccc21` [I-51], the IC50 fell in the range of 500 to 20000 nM.

Compound `O=C(c1cc(Cl)c(O)c(S(=O)(=O)n2c(-c3ccccc3)cc3cc(Cl)ccc32)c1)N1CCC1` [I-52, azetidin-1-yl(3-chloro-5-((5-chloro-2-phenyl-1H-indol-1-yl)sulfonyl)-4-hydroxyphenyl)methanone] came in with an IC50 of 500 to 20000 nM.

As for `COC(=O)c1ccc2c(c1)cc(-c1ccccc1)n2S(=O)(=O)c1cc(Br)cc(Cl)c1O` [I-53], the IC50 lay in the range of 500 to 20000 nM.

`O=S(=O)(c1cc(Cl)cc(Cl)c1O)n1c(-c2cccc(OC(F)(F)F)c2)cc2cc(Cl)ccc21` [I-54] displayed an IC50 of 500 to 20000 nM.

`O=C(O)c1ccc2c(c1)cc(-c1ccccc1)n2S(=O)(=O)c1cc(Br)cc(Cl)c1O` [I-55] yielded an IC50 of less than 500 nM.

The compound `CN(C)C(=O)c1ccc2c(c1)cc(-c1ccccc1)n2S(=O)(=O)c1cc(Br)cc(Cl)c1O` [I-56] had an IC50 of 500 to 20000 nM.

For `NC(=O)c1ccc2c(c1)cc(-c1ccccc1)n2S(=O)(=O)c1cc(Cl)cc(Cl)c1O` [I-57], the IC50 was 500 to 20000 nM.

In the case of `O=C(O)c1ccc(-c2cc3cc(Cl)ccc3n2S(=O)(=O)c2cc(Cl)cc(Cl)c2)cc1` [I-58], the IC50 was in the range of 500 to 20000 nM.

The term IC50 denotes the concentration needed to halve the response being measured. High values mean weaker potency, low ones greater potency.
